# Measured values: article PMC9653166 (Journal of medicinal chemistry, 2022)
# Key:
# Sirt3 [1] = conditions: cited from earlier work
# Sirt3 [2] = target: T1, Sirt3 (Homo sapiens, UniProt Q9NTG7); assay: Coupled enzymatic deacetylation assay, Sirt3 with ACS2-acK642 peptide; format: biochemical; conditions: coupled assay, ACS2 peptide, 10 and 100 μM compound
# T1 sequence (Q9NTG7 114-380): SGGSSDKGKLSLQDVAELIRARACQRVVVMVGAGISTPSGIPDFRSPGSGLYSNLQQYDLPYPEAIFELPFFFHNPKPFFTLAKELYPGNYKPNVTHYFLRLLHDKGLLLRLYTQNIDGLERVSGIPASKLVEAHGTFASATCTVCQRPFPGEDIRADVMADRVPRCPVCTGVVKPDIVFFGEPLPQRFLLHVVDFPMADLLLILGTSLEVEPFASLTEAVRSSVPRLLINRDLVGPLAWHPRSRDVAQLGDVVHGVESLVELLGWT
# Sirt1-3 = conditions: FdL substrate; cited from earlier work
SMILES,Sirt3 activation (Sirt3 [1]),Effect on Sirt3 activity (in words) (Sirt3 [2]),Sirt1-3 activation in the FdL assay (Sirt1-3)
C=CCc1ccc(O)c(-c2ccc(O)c(CC=C)c2)c1 [honokiol],weakly activate Sirt3,–,–
CCOC(=O)C1=CN(Cc2ccccc2)C=C(C(=O)OCC)C1c1ccccc1 [Compound 1],–,Sirt3 activation,Sirt1-3 activating properties
